“And” between values parts separate entries of the source, which are not always exact repeats. Equal values may be shown once.

Data set [1] can be described thus: Lung concentration after nebulizing delivery of Tegavivint formulations (whole body exposure). It is filed as in vivo, bcat-Ex3 mice. The settings on record: mouse lung, individual animals, listed as BC2059. The protocol:
Tegavivint particles suspended in Poloxamer 188/sorbitol at a concentration of 25 mg/mL were used. These formulations were applied to the mice in the form of aerosols, through the method of whole body exposure. The mice were placed inside a plastic box. This box was sealed and connected by one of its sides to the outlet of the nebulizer device, and on the other side to a system of closed water. The whole procedure was carried out inside the fume hood of the animal room.
For the first experiment, the nebulizer kit of SATER LABS was used. This device uses the jet system. The device was primed with 5 ml of the drug, i.e. 125 mg of tegavivint (BC2059), for each group of 5 mice, and then the device was connected to the power source for nebulization. The energy was supplied by a DeVilbiss compressor model 646, which allows 5-7 pounds of pressure, and a flow of 6-8 liters per minute. For the second experiment, the device used was the Altera, ultrasonic nebulizer.
For the two experiments, 10 male bcat-Ex3 mice were used for each set. These mice were separated into 2 groups of 5 mice each. The first group received the drug daily, for 5 consecutive days. The second group received the drug only once (the fifth day). On day 5 all mice were sacrificed, lung harvested, and samples were stored at −30 degrees, in two labeled nylon bags, each containing the 5 samples from each group.

The subject of data set [2] is primary palmar fascia fibroblasts derived from the fibrotic palmar fascia (DD249 cells). As to the kind of experiment: Alamar Blue proliferation/viability assay, DD249 cells. The data set is classed as cell-based, human. The settings on record: for proliferation/viability: DD249 cells, 48 and 72 hrs relative to 24 hrs. On the procedure: Tegavivint (BC-2059) powder was reconstituted it in 100% dimethyl sulfoxide (DMSO) to a 10_mM stock solution. The stock was diluted to 100 nM in serum-free media (α minimal essential medium, αMEM), and further diluted to 100 pM in serum-free αMEM immediately before the analyses were performed. Serial dilutions from 100 pM down to 0.78 pM were assessed in various assays. 0.001% DMSO in αMEM was used as the vehicle control, and αMEM alone was used as an untreated control, in a subset of analyses.
Proliferation/viability analyses were performed in triplicate on primary palmar fascia fibroblasts derived from the fibrotic palmar fascia (DD cells) of 2 patients with Dupuytren's disease (DD249, DD77) and syngeneic primary palmar fascia fibroblasts derived from visibly non-fibrotic palmar fascia (PF cells) from these patients (PF249, PF77). Cells were cultured on type-1 collagen coated 96 well trays for these analyses to better replicate substrate interactions in vivo. Two independent assays were used for these analyses: Alamar Blue assays for analyses up to 72 hrs in cells derive from 1 patient, and Water Soluble Tetrazolium-(WST-1) assays for analyses up to 24 hrs in cells derived from the other patients. Significant effects of treatment on proliferation over time were detected by ANOVA repeated measures.

For data set [3], the system named is bleomycin-induced pulmonary fibrosis. The experiment in a line: Bleomycin-induced pulmonary fibrosis mouse model, intravenous Tegavivint. The data set is classed as in vivo, C57BL/6 wild-type mice. The settings on record: 50 mg/kg biw tail-vein injection. The protocol: In a pilot study, Tegavivint at 50 mg/kg was administered biw (twice a week) via tail-vein injection to C57BL/6 wild-type mice. Bleomycin was administered to the mice intratracheally on day 0 to induce pulmonary fibrosis, and Tegavivint or the vehicle (5% dextrose in water) was administered on days 6, 10, 14, 18 and 21. The purpose of this experiment was to evaluate the effect of systemically-administered Tegavivint on bleomycin-induced pulmonary fibrosis in vivo.

For data set [4], the target named is T1, TBL1 (Homo sapiens, UniProt O60907).
T1 sequence (O60907 1-577): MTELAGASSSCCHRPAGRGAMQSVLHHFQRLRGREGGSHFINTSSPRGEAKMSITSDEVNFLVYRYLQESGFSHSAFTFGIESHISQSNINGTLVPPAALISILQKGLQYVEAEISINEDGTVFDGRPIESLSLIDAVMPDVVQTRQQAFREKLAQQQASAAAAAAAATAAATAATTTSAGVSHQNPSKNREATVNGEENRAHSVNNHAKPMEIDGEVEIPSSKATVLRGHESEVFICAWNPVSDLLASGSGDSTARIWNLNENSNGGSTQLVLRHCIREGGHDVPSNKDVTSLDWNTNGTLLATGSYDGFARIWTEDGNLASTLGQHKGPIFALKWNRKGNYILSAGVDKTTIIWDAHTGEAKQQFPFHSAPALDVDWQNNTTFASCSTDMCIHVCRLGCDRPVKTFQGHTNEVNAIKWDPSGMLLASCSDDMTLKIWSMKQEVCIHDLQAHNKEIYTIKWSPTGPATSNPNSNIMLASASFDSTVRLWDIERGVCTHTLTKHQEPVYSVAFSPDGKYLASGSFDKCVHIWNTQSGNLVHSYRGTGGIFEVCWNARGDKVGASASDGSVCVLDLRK
Particulars: background statement, no method given; cited from earlier work.

The mark [5] stands for this setting: Aerosol jet nebulizer (Sater Labs), 1 day (single-dose on Day 5).
[6] abbreviates: Aerosol jet nebulizer (Sater Labs), 5 day (5 daily doses on Days 1-5).
Setting [7] is: Nebulizer ultrasonic eRapid (Altera), 1 day (single-dose on Day 5).
Setting [8] is: Nebulizer ultrasonic eRapid (Altera), 5 day (5 daily doses on Days 1-5).
Where [9] appears, read: Tegavivint alone (no bleomycin).

For the substance Tegavivint, the “Lung Concentration (ng/g)” value in data set [1] (setting [5]) is 5040 ng/g and 16800 ng/g and 56800 ng/g and 5200 ng/g and 17100 ng/g; in data set [1] (setting [6]) it was 18600 ng/g and 6600 ng/g and 14500 ng/g and 12300 ng/g and 14200 ng/g; in data set [1] (setting [7]), 11400 ng/g and 11600 ng/g and 34600 ng/g and 15100 ng/g and 2400 ng/g; in data set [1] (setting [8]), 19100 ng/g and 17200 ng/g and 18800 ng/g and 12200 ng/g and 22900 ng/g. The “Lung Concentration (ng/mL)” value in data set [1] (setting [5]) is 1260 ng/mL and 4190 ng/mL and 14200 ng/mL and 1300 ng/mL and 4270 ng/mL; in data set [1] (setting [6]), 4640 ng/mL and 1650 ng/mL and 3620 ng/mL and 3080 ng/mL and 3550 ng/mL; in data set [1] (setting [7]) it was 2840 ng/mL and 2910 ng/mL and 8660 ng/mL and 3780 ng/mL and 601 ng/mL; in data set [1] (setting [8]) it was 4770 ng/mL and 4290 ng/mL and 4690 ng/mL and 3040 ng/mL and 5730 ng/mL. For the same substance, the proliferation/viability entry in data set [2] (25 pM) was “viable and able to proliferate to significantly greater cell numbers”; in data set [2] (50 pM) it was “unable to proliferate”. The “therapeutic window concentration (proliferation of fibrosis-derived but not syngeneic palmar fascia derived cells inhibited)” value in data set [2] (DD versus PF cells, preliminary analyses) was “approximately 50 pM”. Also, in data set [2] (fibrosis-derived fibroblasts, both proliferation/viability assays and visual inspection), the cytotoxic concentrations is on record as over 100 pM. In data set [2] (≤25 pM), the “effects on cell proliferation/viability” value is reported as “did not identify any consistent effects”. The pulmonary compliance entry in data set [3] (Tegavivint after bleomycin) is “partially restored”; in data set [3] (setting [9]), “no effect”. For the same substance, the “total soluble collagen content in lung tissue (Sircol assay)” value in data set [3] (Tegavivint after bleomycin) is listed as “completely restored the collagen level to the same as vehicle-only controls”; in data set [3] (setting [9]), “no effect”. For the same substance, the “interaction with TBL1” value in data set [4] was “interact with TBL1”.

The values are drawn from patent US11298346B2, “Methods for treatment of fibrotic diseases” (Beta Cat Pharmaceuticals, Inc., priority 2017, dated 2022).
